Read-outs that look alike come from different tables or passages of the source.
Tests used:
[1] = test system: T. cruzi Y strain trypomastigote forms; experiment: Anti-T. cruzi activity against trypomastigote forms; type: cell-based; conditions: for EC50: read-out: Y strain T. cruzi EC50 Trypomastigote; for SI (selectivity index): mammalian cell CC50 versus trypomastigote EC50; for trypanosomicidal activity (parasite mortality): at 100 μmol·L^–1, trypomastigotes
Description: (§1) The T. cruzi Y strain was selected for this study due to its known partial sensitivity to benznidazole chemotherapy.
Trypomastigote forms of T. cruzi (2.5 × 10^5 parasites/well) were incubated in 96-well plates with serial dilutions of the hybrid compounds (100, 50, 25, and 12.5 μmol·L^–1) for 24 h at 37 °C in a humidified 5% CO2 atmosphere. Following incubation, parasite viability was assessed under an optical microscope by evaluating motility, and the number of live parasites was quantified using a Neubauer chamber. Untreated parasite cultures were maintained in parallel as negative controls. The mortality percentage was calculated by comparing the number of live parasites in treated wells to that of untreated controls. All experiments were conducted in triplicate with at least two technical replicates per concentration. EC50 values were determined by nonlinear regression using GraphPad Prism 8 and CompuSyn software (Biosoft, U.K.).

[2] = Cell viability assay (resazurin), Vero cells; type: cell-based; conditions: African green monkey, Vero cells; resazurin method; 48 h incubation; read-out: Cytotoxicity CC50 Vero
Description: (§2) Vero and H9c2 cells (2 × 10^3 cells/well) were seeded in 96-well plates in Dulbecco’s modified Eagle’s medium (DMEM) supplemented with 5% fetal bovine serum (FBS) and incubated for 24 h at 37 °C in a humidified atmosphere with 5% CO2. After incubation, the medium was replaced with fresh DMEM + 5% FBS containing serial dilutions of each hybrid compound (1400 to 175 μmol·L^–1). Cells were exposed to the compounds for 48 h. Four wells with untreated cells served as a positive control. Additionally, eight wells without cells were maintained as negative controls: four containing DMEM + 5% FBS + resazurin (1 mmol·L^–1), and four containing only DMEM + 5% FBS. After the 48-h incubation, the treatment medium was removed and replaced with DMEM + 5% FBS containing 10% resazurin solution (1 mmol·L^–1). Plates were incubated for an additional 6 h, and then absorbance was measured at 570 and 600 nm using a microplate reader. Dose–response curves were constructed using GraphPad Prism 8 software, and CC50 values were determined by nonlinear regression.

[3] = test system: T. cruzi Y strain amastigote forms; experiment: Anti-T. cruzi activity against intracellular amastigote forms in infected Vero or H9c2 cells; type: cell-based, Trypanosoma cruzi; conditions: Vero or H9c2 cells infected with amastigote forms, 48 h of incubation, fixed concentration 50 μmol·L^–1
Description: as §1
Vero or H9c2 cells (7.5 × 10^3 cells/well) were seeded on sterile glass coverslips placed in 24-well plates and incubated for 24 h at 37 °C in 5% CO2 to allow cell adhesion. Following this period, cells were infected with trypomastigote forms of T. cruzi Y strain at a ratio of 20 parasites per cell. After 24 h of parasite-host interaction, noninternalized parasites were removed by washing with fresh medium, and the infected monolayers were incubated for 48 h with the hybrid compounds at a fixed concentration of 50 μmol·L^–1, following toxicity parameters. Infected but untreated cells were included as negative controls in all experiments. At the end of the treatment period, coverslips were washed with medium, fixed with methanol, and stained with Giemsa solution. After drying, the coverslips were mounted onto microscope slides using Entellan (Merck) and analyzed under a light microscope at 100× magnification. At least 200 cells were counted per coverslip, and only intracellular parasite forms with characteristic morphology were considered for analysis. The infection index was determined by the percentage of infected cells relative to the total number of cells analyzed. The inhibition percentage was calculated based on the reduction in infection in treated samples compared to the untreated control. Dose–response curves were constructed using GraphPad Prism 8 and CompuSyn (Biosoft, U.K.). All experiments were performed in triplicate, with at least two technical replicates per condition.

[4] = Cell viability assay (resazurin), H9c2 cells; type: cell-based; conditions: rat, resazurin method, 48 h incubation, read-out: Cytotoxicity CC50 H9c2
Description: as §2

[5] = test system: T. cruzi intracellular amastigote forms; conditions: in vitro; cited from earlier work
Vero cells = experiment: Cell viability assay (resazurin), Vero cells; type: cell-based; conditions: 48 h; 1400 to 175 μmol·L^–1
Description: as §2

Trypanosoma cruzi = conditions: cited from earlier work
[6] = Trypanosoma cruzi, 24 h, 24 h of incubation, Y strain

Structure (SMILES) | EC50 [1, 6] | EC50 ([3]; Trypanosoma cruzi) | CC50 at 48 h [2] | CC50 at 48 h [4] | other results
COc1cc(CC(O)Cn2ccnc2)cc([N+](=O)[O-])c1OCc1ccccc1 (single isomer, unassigned; (+)) [(+)-29] | ~29 µM | – | – | – | EC50 ([1]; 24 h of incubation, Y strain): 28.8 µM; mortality at 100 µM ([1]; Trypanosoma cruzi, 24 h, read-out: trypanosomicidal activity (parasite mortality)): ~99%; EC50 [3]: > 50 µM
COc1cc(CC(O)Cn2ccnc2)cc([N+](=O)[O-])c1OCc1ccccc1 (single isomer, unassigned; (-)) [(-)-29] | – | – | – | – | EC50 ([1]; 24 h of incubation, Y strain, listed as (−)-29): ~29 µM; EC50 ([1]; 24 h of incubation, Y strain): 29.9 µM; trypanosomicidal activity (parasite mortality) ([1]; 24 h): approximately 99%; EC50 [3]: > 50 µM
CC[C@@H]([C@H](C)O)n1ncn(-c2ccc(N3CCN(c4ccc(OC[C@@H]5CO[C@@](Cn6cncn6)(c6ccc(F)cc6F)C5)cc4)CC3)cc2)c1=O [posaconazole] | – | – | – | – | inhibitory concentration against intracellular amastigotes (in words) [5]: subnanomolar concentrations
COc1cc(CC(O)Cn2cncn2)ccc1O (racemic) [Compound 18, (±)-4-(2-Hydroxy-3-(1H-1,2,4-triazol-1-yl)propyl)-2-methoxyphenol] | > 100 µM | > 50 µM | > 1.3 mM | > 1.3 mM | –
COc1cc(CC(O)Cn2ccnc2)cc([N+](=O)[O-])c1OCc1ccccc1 (racemic) [Compound 29, (±)-1-(4-(Benzyloxy)-3-methoxy-5-nitrophenyl)-3-(1H-imidazol-1-yl)propan-2-ol] | – | > 50 µM | > 1.3 mM | > 1.3 mM | EC50 ([1]; 24 h of incubation, Y strain): 26.5 µM; trypanosomicidal activity (parasite mortality) ([1]; 24 h): approximately 99%; SI (selectivity index) [1]: >49
COc1cc(CC(O)Cn2cncn2)cc([N+](=O)[O-])c1O (racemic) [Compound 19, (±)-4-(2-Hydroxy-3-(1H-1,2,4-triazol-1-yl)propyl)-2-methoxy-6-nitrophenol] | > 100 µM | > 50 µM | > 1.3 mM | > 1.3 mM | –
C[C@@H](c1nc(-c2ccc(C#N)cc2)cs1)[C@](O)(Cn1cncn1)c1ccc(F)cc1F [ravuconazole] | – | – | – | – | inhibitory concentration against intracellular amastigotes (in words) [5]: subnanomolar concentrations
COc1ccc(CC(O)Cn2ccnn2)cc1OC (racemic) [Compound 32, (±)-1-(3,4-Dimethoxyphenyl)-3-(1H-1,2,3-triazol-1-yl)propan-2-ol] | > 100 µM | > 50 µM | > 1.3 mM | > 1.3 mM | –
COc1cc(CC(O)Cn2ccnn2)cc([N+](=O)[O-])c1O (racemic) [Compound 31, (±)-4-(2-Hydroxy-3-(1H-1,2,3-triazol-1-yl)propyl)-2-methoxy-6-nitrophenol] | > 100 µM | > 50 µM | > 1.3 mM | > 1.3 mM | –
COc1cc(CC(O)Cn2ccnn2)ccc1O (racemic) [Compound 30, (±)-4-(2-Hydroxy-3-(1H-1,2,3-triazol-1-yl)propyl)-2-methoxyphenol] | > 100 µM | > 50 µM | > 1.3 mM | > 1.3 mM | –
COc1cc(CC(O)Cn2ccnn2)cc([N+](=O)[O-])c1OC (racemic) [Compound 33, (±)-1-(3,4-Dimethoxy-5-nitrophenyl)-3-(1H-1,2,3-triazol-1-yl)propan-2-ol] | > 100 µM | > 50 µM | 1.19 mM | > 1.3 mM | cytotoxicity toward Vero cells (in words) (Vero cells): significantly higher cytotoxicity
C=CCc1ccc(O)c(OC)c1 [Eug, eugenol] | – | – | – | – | EC50 ([1]; Trypanosoma cruzi, 24 h): 500 µM

Further lines, with some results ahead:

EC50 [1, 6] | EC50 ([3]; Trypanosoma cruzi) | Structure (SMILES) | CC50 at 48 h [2] | CC50 at 48 h [4] | other results
38.1 µM | > 50 µM | COc1cc(CC(O)Cn2ccnn2)cc([N+](=O)[O-])c1OCc1ccccc1 (racemic) [Compound 34, (±)-1-(4-(Benzyloxy)-3-methoxy-5-nitrophenyl)-3-(1H-1,2,3-triazol-1-yl)propan-2-ol] | > 1.3 mM | > 1.3 mM | SI (selectivity index) [1]: >34
> 100 µM | > 50 µM | COc1cc(CC(O)Cn2ccnc2)ccc1O (racemic) [Compound 24, (±)-4-(2-Hydroxy-3-(1H-imidazol-1-yl)propyl)-2-methoxyphenol] | > 1.3 mM | > 1.3 mM | –
> 100 µM | > 50 µM | COc1cc(CC(O)Cn2cncn2)ccc1OCc1ccccc1 (racemic) [Compound 22, (±)-1-(4-(Benzyloxy)-3-methoxyphenyl)-3-(1H-1,2,4-triazol-1-yl)propan-2-ol] | > 1.3 mM | > 1.3 mM | –
> 100 µM | > 50 µM | COc1ccc(CC(O)Cn2ccnc2)cc1OC (racemic) [Compound 26, (±)-1-(3,4-Dimethoxyphenyl)-3-(1H-imidazol-1-yl)propan-2-ol] | > 1.3 mM | > 1.3 mM | –
> 100 µM | > 50 µM | COc1ccc(CC(O)Cn2cncn2)cc1OC (racemic) [Compound 20, (±)-1-(3,4-Dimethoxyphenyl)-3-(1H-1,2,4-triazol-1-yl)propan-2-ol] | > 1.4 mM | > 1.3 mM | cytotoxicity toward Vero cells (in words) (Vero cells): significantly higher cytotoxicity
> 100 µM | > 50 µM | COc1cc(CC(O)Cn2ccnc2)ccc1OCc1ccccc1 (racemic) [Compound 28, (±)-1-(4-(Benzyloxy)-3-methoxyphenyl)-3-(1H-imidazol-1-yl)propan-2-ol] | > 1.3 mM | > 1.3 mM | –
> 100 µM | > 50 µM | COc1cc(CC(O)Cn2ccnc2)cc([N+](=O)[O-])c1OC (racemic) [Compound 27, (±)-1-(3,4-Dimethoxy-5-nitrophenyl)-3-(1H-imidazol-1-yl)propan-2-ol] | > 1.3 mM | > 1.3 mM | –
> 100 µM | > 50 µM | COc1cc(CC(O)Cn2ccnc2)cc([N+](=O)[O-])c1O (racemic) [Compound 25, (±)-4-(2-Hydroxy-3-(1H-imidazol-1-yl)propyl)-2-methoxy-6-nitrophenol] | 0.86 mM | > 1.3 mM | cytotoxicity toward Vero cells (in words) (Vero cells): significantly higher cytotoxicity
> 100 µM | > 50 µM | COc1cc(CC(O)Cn2cncn2)cc([N+](=O)[O-])c1OCc1ccccc1 (racemic) [Compound 23, (±)-1-(4-(Benzyloxy)-3-methoxy-5-nitrophenyl)-3-(1H-1,2,4-triazol-1-yl)propan-2-ol] | > 1.3 mM | > 1.3 mM | activity against trypomastigote forms (in words) ([1]; Y strain, up to 100 μmol·L^–1): inactive
> 100 µM | > 50 µM | COc1cc(CC(O)Cn2cncn2)cc([N+](=O)[O-])c1OC (racemic) [Compound 21, (±)-1-(3,4-Dimethoxy-5-nitrophenyl)-3-(1H-1,2,4-triazol-1-yl)propan-2-ol] | > 1.3 mM | > 1.3 mM | –
21 µM | – | O=C(Cn1ccnc1[N+](=O)[O-])NCc1ccccc1 [Bz, benznidazole] | – | – | parasitological cure rates (Trypanosoma cruzi; acute or early congenital infections): 80–90%; treatment discontinuation due to adverse effects (Trypanosoma cruzi; dermatological, gastrointestinal and neurological symptoms): 10–20 % of patients

Reference: article PMC12444550, “Design, Synthesis, and Trypanosomicidal Evaluation of Eugenol-Based Azole Hybrids: Discovery of an In Vitro Active and Selective Compound” (ACS Omega, 2025)
